The subject of the test is human red blood cells. Particulars: red cells of human.

Read-outs that look alike come from different tables or passages of the source. Non-standard residues stand in square brackets, D forms with d. Residues, ends and D or L forms follow the SMILES beside them. βAla = NCCC(=O)O

Turning to `CC[C@H](C)[C@H](NC(=O)[C@H](C)NC(=O)[C@H](CCC(=O)O)NC(=O)[C@H](Cc1ccccc1)NC(=O)[C@H](CC(C)C)NC(=O)CNC(=O)[C@@H](N)CS)C(=O)N[C@@H](CCC(=O)O)C(=O)NCC(=O)N[C@@H](Cc1ccccc1)C(=O)N[C@H](C(=O)N[C@@H](CCC(=O)O)C(=O)N[C@@H](CC(N)=O)C(=O)NCC(=O)N[C@@H](Cc1c[nH]c2ccccc12)C(=O)N[C@@H](CCC(=O)O)C(=O)NCC(=O)N[C@@H](CC(C)C)C(=O)N[C@H](C(=O)N[C@@H](CC(=O)O)C(=O)NCC(=O)N[C@@H](Cc1c[nH]c2ccccc12)C(=O)N[C@@H](Cc1ccc(O)cc1)C(=O)NCC(=O)N[C@@H](Cc1ccc(O)cc1)C(=O)NCC(=O)N[C@@H](CCCNC(=N)N)C(=O)N[C@@H](CCCCN)C(=O)N[C@@H](CCCCN)C(=O)N[C@@H](CCCNC(=N)N)C(=O)N[C@@H](CCCNC(=N)N)C(=O)N[C@@H](CCC(N)=O)C(=O)N[C@@H](CCCNC(=N)N)C(=O)N[C@@H](CCCNC(=N)N)C(N)=O)[C@@H](C)CC)[C@@H](C)CC` [Peptide 28g], the IC50 – broadly, the point on the concentration scale where inhibition reaches its midpoint – (pH 5.5) amounted to 710 nM and the IC50 (pH 7.4) was 2900 nM.

Take `CC[C@H](C)[C@H](NC(=O)[C@H](C)NC(=O)[C@H](CCC(=O)O)NC(=O)[C@H](Cc1ccccc1)NC(=O)[C@H](CC(C)C)NC(=O)CNC(=O)[C@@H](N)CS)C(=O)N[C@@H](CCC(=O)O)C(=O)NCC(=O)N[C@@H](Cc1ccccc1)C(=O)N[C@H](C(=O)N[C@@H](CCC(=O)O)C(=O)N[C@@H](CC(N)=O)C(=O)NCC(=O)N[C@@H](Cc1c[nH]c2ccccc12)C(=O)N[C@@H](CCC(=O)O)C(=O)NCC(=O)N[C@@H](CCSC)C(=O)N[C@H](C(=O)N[C@@H](CC(=O)O)C(=O)NCC(=O)NCC(=O)NCC(=O)NCC(=O)N[C@@H](Cc1ccc(O)cc1)C(=O)NCC(=O)N[C@@H](CCCNC(=N)N)C(=O)N[C@@H](CCCCN)C(=O)N[C@@H](CCCCN)C(=O)N[C@@H](CCCNC(=N)N)C(=O)N[C@@H](CCCNC(=N)N)C(=O)N[C@@H](CCC(N)=O)C(=O)N[C@@H](CCCNC(=N)N)C(=O)N[C@@H](CCCNC(=N)N)C(N)=O)[C@@H](C)CC)[C@@H](C)CC` [Peptide 32b] (H-CGLFEAIEGFIENGWEGMIDGGGGYGRKKRRQRR-NH2): the concentration for half-maximal inhibition (IC50) is greater than 10000 nM (pH 5.5) and greater than 10000 nM (pH 7.4).

With `CC[C@H](C)[C@H](NC(=O)[C@H](C)NC(=O)[C@H](CCC(=O)O)NC(=O)[C@H](C)NC(=O)[C@H](CC(C)C)NC(=O)CNC(=O)[C@@H](N)CS)C(=O)N[C@@H](CCC(=O)O)C(=O)NCC(=O)N[C@@H](Cc1ccccc1)C(=O)N[C@H](C(=O)N[C@@H](CCC(=O)O)C(=O)N[C@@H](CC(N)=O)C(=O)NCC(=O)N[C@@H](CC(C)C)C(=O)N[C@@H](CCCCN)C(=O)NCC(=O)N[C@@H](CC(C)C)C(=O)N[C@H](C(=O)N[C@@H](CC(=O)O)C(=O)N[C@@H](Cc1c[nH]c2ccccc12)C(=O)N[C@@H](Cc1c[nH]c2ccccc12)C(=O)N[C@@H](Cc1ccc(O)cc1)C(=O)NCC(=O)N[C@@H](Cc1ccc(O)cc1)C(=O)NCC(=O)N[C@@H](CCCNC(=N)N)C(=O)N[C@@H](CCCCN)C(=O)N[C@@H](CCCCN)C(=O)N[C@@H](CCCNC(=N)N)C(=O)N[C@@H](CCCNC(=N)N)C(=O)N[C@@H](CCC(N)=O)C(=O)N[C@@H](CCCNC(=N)N)C(=O)N[C@@H](CCCNC(=N)N)C(N)=O)[C@@H](C)CC)[C@@H](C)CC` [Peptide 58] (H-CGLAEAIEGFIENGLKGLIDWWYGYGRKKRRQRR-NH2), the IC50 reads like this: (pH 5.5) 60 nM; (pH 7.4) 2000 nM.

Compound `CC[C@H](C)[C@H](NC(=O)[C@H](Cc1ccccc1)NC(=O)[C@H](CCC(=O)O)NC(=O)[C@H](CCC(=O)O)NC(=O)[C@@H](NC(=O)[C@H](Cc1ccccc1)NC(=O)[C@H](CCC(=O)O)NC(=O)[C@H](Cc1ccccc1)NC(=O)CNC(=O)CCNC(=O)[C@@H](N)CS)[C@@H](C)CC)C(=O)N[C@@H](CCC(=O)O)C(=O)N[C@@H](CC(N)=O)C(=O)NCC(=O)N[C@@H](CC(C)C)C(=O)N[C@@H](CCCCN)C(=O)N[C@@H](CC(N)=O)C(=O)N[C@@H](CC(C)C)C(=O)N[C@H](C(=O)N[C@@H](CC(=O)O)C(=O)N[C@@H](Cc1c[nH]c2ccccc12)C(=O)N[C@@H](Cc1c[nH]c2ccccc12)C(=O)N[C@@H](Cc1ccc(O)cc1)C(=O)NCC(=O)N[C@@H](Cc1ccc(O)cc1)C(=O)NCC(=O)N[C@@H](CCCNC(=N)N)C(=O)N[C@@H](CCCCN)C(=O)N[C@@H](CCCCN)C(=O)N[C@@H](CCCNC(=N)N)C(=O)N[C@@H](CCCNC(=N)N)C(=O)N[C@@H](CCC(N)=O)C(=O)N[C@@H](CCCNC(=N)N)C(=O)N[C@@H](CCCNC(=N)N)C(N)=O)[C@@H](C)CC` [Peptide 60] (H-C[βAla]GFEFIEEFIENGLKNLIDWWYGYGRKKRRQRR-NH2) registered an IC50 (pH 5.5) of 1140 nM and an IC50 (pH 7.4) of 12800 nM.

Consider `CC[C@H](C)[C@H](NC(=O)[C@H](CCC(=O)O)NC(=O)CNC(=O)[C@H](Cc1ccccc1)NC(=O)[C@H](CC(C)C)NC(=O)CNC(=O)[C@@H](N)CS)C(=O)N[C@@H](CCC(=O)O)C(=O)N[C@@H](CCC(=O)O)C(=O)N[C@@H](CC(C)C)C(=O)N[C@H](C(=O)N[C@@H](CCC(=O)O)C(=O)N[C@@H](CCC(=O)O)C(=O)NCC(=O)N[C@@H](CC(C)C)C(=O)N[C@@H](CCCCN)C(=O)N[C@@H](CC(N)=O)C(=O)N[C@@H](CC(C)C)C(=O)N[C@H](C(=O)N[C@@H](CC(=O)O)C(=O)N[C@@H](Cc1c[nH]c2ccccc12)C(=O)N[C@@H](Cc1c[nH]c2ccccc12)C(=O)N[C@@H](Cc1ccc(O)cc1)C(=O)NCC(=O)N[C@@H](Cc1ccc(O)cc1)C(=O)NCC(=O)N[C@@H](CCCNC(=N)N)C(=O)N[C@@H](CCCCN)C(=O)N[C@@H](CCCCN)C(=O)N[C@@H](CCCNC(=N)N)C(=O)N[C@@H](CCCNC(=N)N)C(=O)N[C@@H](CCC(N)=O)C(=O)N[C@@H](CCCNC(=N)N)C(=O)N[C@@H](CCCNC(=N)N)C(N)=O)[C@@H](C)CC)[C@@H](C)CC` [Peptide 61] (H-CGLFGEIEELIEEGLKNLIDWWYGYGRKKRRQRR-NH2), for which the IC50 reads like this: (pH 5.5) 970 nM; (pH 7.4) 8070 nM.

For `CC[C@H](C)[C@H](NC(=O)[C@H](CCC(=O)O)NC(=O)CNC(=O)[C@H](Cc1ccccc1)NC(=O)[C@H](CC(C)C)NC(=O)CNC(=O)[C@@H](N)CS)C(=O)N[C@@H](CCC(=O)O)C(=O)N[C@@H](CCC(=O)O)C(=O)N[C@@H](CC(C)C)C(=O)N[C@H](C(=O)N[C@@H](CCC(=O)O)C(=O)N[C@@H](CCC(=O)O)C(=O)NCC(=O)N[C@@H](CC(C)C)C(=O)N[C@@H](CCCCN)C(=O)N[C@@H](CC(N)=O)C(=O)N[C@@H](CC(C)C)C(=O)N[C@H](C(=O)N[C@@H](CC(=O)O)C(=O)N[C@@H](Cc1c[nH]c2ccccc12)C(=O)N[C@@H](Cc1c[nH]c2ccccc12)C(=O)N[C@@H](Cc1ccc(O)cc1)C(=O)NCC(=O)N[C@@H](Cc1ccc(O)cc1)C(=O)NCC(=O)N[C@@H](Cc1c[nH]cn1)C(=O)N[C@@H](CCCCN)C(=O)N[C@@H](CCCCN)C(=O)N[C@@H](Cc1c[nH]cn1)C(=O)N[C@@H](Cc1c[nH]cn1)C(=O)N[C@@H](CCC(N)=O)C(=O)N[C@@H](Cc1c[nH]cn1)C(=O)N[C@@H](CCCNC(=N)N)C(N)=O)[C@@H](C)CC)[C@@H](C)CC` [Peptide 62] (H-CGLFGEIEELIEEGLKNLIDWWYGYGHKKHHQHR-NH2), the IC50 by setting is: (pH 5.5) 1280 nM; (pH 7.4) greater than 20000 nM.

`CC[C@H](C)[C@H](NC(=O)[C@H](CCC(=O)O)NC(=O)CNC(=O)[C@H](Cc1ccccc1)NC(=O)[C@H](CC(C)C)NC(=O)CNC(=O)[C@@H](N)CS)C(=O)N[C@@H](CCC(=O)O)C(=O)N[C@@H](CCC(=O)O)C(=O)N[C@@H](CC(C)C)C(=O)N[C@H](C(=O)N[C@@H](CCC(=O)O)C(=O)N[C@@H](CCC(=O)O)C(=O)NCC(=O)N[C@@H](CC(C)C)C(=O)N[C@@H](CCC(=O)O)C(=O)N[C@@H](CC(N)=O)C(=O)N[C@@H](CC(C)C)C(=O)N[C@H](C(=O)N[C@@H](CC(=O)O)C(=O)N[C@@H](Cc1c[nH]c2ccccc12)C(=O)N[C@@H](Cc1c[nH]c2ccccc12)C(=O)N[C@@H](Cc1ccc(O)cc1)C(=O)NCC(=O)N[C@@H](Cc1ccc(O)cc1)C(=O)NCC(=O)N[C@@H](CCCNC(=N)N)C(=O)N[C@@H](CCCCN)C(=O)N[C@@H](CCCCN)C(=O)N[C@@H](CCCNC(=N)N)C(=O)N[C@@H](CCCNC(=N)N)C(=O)N[C@@H](CCC(N)=O)C(=O)N[C@@H](CCCNC(=N)N)C(=O)N[C@@H](CCCNC(=N)N)C(N)=O)[C@@H](C)CC)[C@@H](C)CC` [Peptide 63] (H-CGLFGEIEELIEEGLENLIDWWYGYGRKKRRQRR-NH2): half-maximal inhibition (pH 5.5) (IC50) required 3600 nM and the IC50 (pH 7.4) is greater than 20000 nM.

Consider `CC[C@H](C)[C@H](NC(=O)[C@H](CCC(=O)O)NC(=O)CNC(=O)[C@H](Cc1ccccc1)NC(=O)[C@H](CC(C)C)NC(=O)CNC(=O)[C@@H](N)CS)C(=O)N[C@@H](CCC(=O)O)C(=O)N[C@@H](CCC(=O)O)C(=O)N[C@@H](CC(C)C)C(=O)N[C@H](C(=O)N[C@@H](CCC(=O)O)C(=O)N[C@@H](CCC(=O)O)C(=O)NCC(=O)N[C@@H](CC(C)C)C(=O)N[C@@H](CCC(=O)O)C(=O)N[C@@H](CC(N)=O)C(=O)N[C@@H](CC(C)C)C(=O)N[C@H](C(=O)N[C@@H](CC(=O)O)C(=O)N[C@@H](Cc1c[nH]c2ccccc12)C(=O)N[C@@H](Cc1c[nH]c2ccccc12)C(=O)N[C@@H](Cc1ccc(O)cc1)C(=O)NCC(=O)N[C@@H](Cc1ccc(O)cc1)C(=O)NCC(=O)N[C@@H](Cc1c[nH]cn1)C(=O)N[C@@H](CCCCN)C(=O)N[C@@H](CCCCN)C(=O)N[C@@H](Cc1c[nH]cn1)C(=O)N[C@@H](Cc1c[nH]cn1)C(=O)N[C@@H](CCC(N)=O)C(=O)N[C@@H](Cc1c[nH]cn1)C(=O)N[C@@H](CCCNC(=N)N)C(N)=O)[C@@H](C)CC)[C@@H](C)CC` [Peptide 64] (H-CGLFGEIEELIEEGLENLIDWWYGYGHKKHHQHR-NH2), for which the IC50 was 3910 nM (pH 5.5) and greater than 20000 nM (pH 7.4).

These data come from PMC6600388 (2019).
